How the values were obtained:
[1] = target: T1, CSN5 (Homo sapiens, UniProt Q92905); experiment: CSN5 activity assay (CSN deneddylation, fluorescence polarization); format: biochemical; settings: JAMM domain protease; means±s.d.
T1 construct: made in house; host or cells: Sf21 insect cells, co-infection of separate baculoviruses
Procedure: Unlike the majority of proteases, it is not active as an individual subunit or as an isolated catalytic domain. […] For the identification of CSN inhibitors, we therefore conducted a high-throughput screening campaign using a biochemical assay with recombinant CSN and a fluorescence-labelled and NEDD8-modified CRL substrate[30][40] (PT22-NEDD8-SCF^Skp2; Supplementary Table 1).
The potency of CSN5 inhibitors was determined in a CSN activity assay using changes in fluorescence polarization as the readout. Reactions were carried out at room temperature in 384-well plates. […] The effect of compound on enzymatic activity was determined from the linear part of the progression curves by an end-point measurement of the fluorescence polarization at 590 nm after excitation at 540 nm using a PHERAstar plate reader (BMG LABTECH GmbH). IC50 values were calculated from the plot of percentage of inhibition versus inhibitor concentration using the non-linear regression analysis software Origin 7.5SR6 (OriginLab Corp.).

[2] = Pharmacokinetics in mice (single i.v. and oral dose); settings: mouse, in vivo, mice (n=3), single i.v. 1 mg per kg and single oral 3 mg per kg dose; for clearance: read-out: Cl (clearance); for bioavailability: read-out: F (absolute bioavailability); for half-life: read-out: t1/2 (half-life)
[3] = tested on: THP-1 cells; experiment: Cell viability assay (CellTiter-Glo), THP-1; format: cell-based, human; settings: THP-1, 72 h; cytotoxic
Procedure: (§1) Cells were maintained in a humidified incubator at 37 °C and 5% CO2. […] All cells were negatively tested for mycoplasma contamination either by the vendor or in house. […] If not stated otherwise, cells were harvested after incubation for 16 h and subjected to SDS-PAGE and western blotting. The RNA interference experiment was performed with CSN5 stealth siRNA (#HSS116986) and stealth negative control siRNA (#12935-400) (Invitrogen), which were transfected at 10 nM into HCT116 cells using […] (Qiagen) according to the manufacturer's protocols. Seventy-two hours after transfection, cells were harvested and subjected to SDS-PAGE and western blotting (see Supplementary Fig. 7 for all western blottings performed). A standardized CellTiter-Glo Assay (Promega #G7570) based on the quantification of ATP was applied according to the manufacturer's protocol to measure the amount of viable cells in culture. In brief, cells were seeded into 384-well plates at optimal density for each cell line. After 4 h, compounds were added at different concentrations in growth medium and incubated for another 72 h in a humidifying chamber at 37 °C and 5% CO2. Eventually, equal amounts of CellTiter-Glo reagent were added directly to the cells, incubated for 15 min and luminescence was recorded using PHERAstar plate reader (BMG LABTECH GmbH).

[4] = tested on: NCI-H2030 cells; experiment: Cell viability assay (CellTiter-Glo), NCI-H2030; format: cell-based, human; settings: NCI-H2030, 72 h; cytostatic
Procedure: as §1

[5] = tested on: TE-1 cells; experiment: Cell viability assay (CellTiter-Glo), TE-1; format: cell-based, human; settings: TE-1, 72 h; cytostatic
Procedure: as §1

[6] = Blood concentrations of CSN5i-3 in xenograft study; format: in vivo, SCID-bg mice; settings: 50 mg kg^−1 BID and 100 mg kg^−1 QD oral
Procedure: All animal experiments were approved by the Kantonales Veterinäramt Basel-Stadt and were conducted in accordance with the Eidgenössisches Tierschutzgesetz and the Eidgenössische Tierschutzverordnung. SU-DHL-1 cells (1 × 10^7; DSMZ) were implanted subcutaneously into SCID-bg female 7–9-week-old mice (Taconic) and developing tumours were propagated once before subcutaneous transplantation for efficacy studies. Treatment was initiated when tumours reached 150–200 mm^3 volume. […] Randomization was conducted by using an internal computer software (Indigo). CSN5i-3 was formulated in 100 mM citrate buffer pH 3, PEG300, Kolliphor HS15, 1 N HCl (56:30:10:4%w/w). Tumour response is reported as percentage change in tumour volume at the last day of treatment relative to start of treatment. […] At day 10 of treatment blood, samples were taken and concentrations of CSN5i-3 were determined at indicated time points post dose using ultra-high-pressure liquid chromatography/tandem MS. At the end of treatment, tumours were excised and snap frozen in liquid nitrogen. Frozen tumours were pulverized using CryoPrep (Covaris Inc.) and protein lysates were prepared from tumour powder for immunoblot analysis.

SMILES	IC50 [1] [µM]	clearance [2] [mL/min/kg]	bioavailability [2] [%]	half-life [2] [h]	AMAX [3] [%]	AMAX [4]	AMAX [5]	dose dependence of exposure [6]
COCc1ccccc1NCc1ccc([C@H]2[C@@H](O)CCCc3cncn32)c(-c2ccccc2Cl)c1 [CSN5i-2, (5S,6S)-5-(2′-chloro-5-(((2-(methoxymethyl)phenyl)amino)methyl)-[1,1′-biphenyl]-2-yl)-6,7,8,9-tetrahydro-5H-imidazo[1,5-a]azepin-6-ol]	0.002 ± 0.001	82 ± 25	< 1	0.6 ± 0.0167	–	–	–	–
COCc1ccccc1NCc1ccc([C@@H]2[C@H](O)CCCc3cncn32)c(-c2ccccc2Cl)c1 [CSN5i-2e, (5R,6R)-5-(2′-chloro-5-(((2-(methoxymethyl)phenyl)amino)methyl)-[1,1′-biphenyl]-2-yl)-6,7,8,9-tetrahydro-5H-imidazo[1,5-a]azepin-6-ol]	2.1 ± 1.8	–	–	–	–	–	–	–
CC(C)n1nc(C(F)F)cc1C(=O)Nc1ccc([C@H]2[C@@H](O)CCCc3cncn32)c(-c2ccccc2)c1 [CSN5i-3, 3-(Difluoromethyl)-N-(6-((5S,6S)-6-hydroxy-6,7,8,9-tetrahydro-5H-imidazo[1,5-a]azepin-5-yl)-[1,1′-biphenyl]-3-yl)-1-isopropyl-1H-pyrazole-5-carboxamide]	–	36 ± 3	33 ± 2	2.5 ± 0.3	≤ −95	about −50%	about −50%	dose-linear exposure

Source: publication PMC5078989, “Targeted inhibition of the COP9 signalosome for treatment of cancer” (Nature Communications, 2016)
